# ChEMBL document CHEMBL1201862, “PubChem BioAssay data set” (2004)
#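 Briefly, cells in 96-well plates were exposed to five compound concentrations for 48 h, and endpoints were estimated by linear interpolation. GI50 = concentration required for 50% inhibition of growth.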 The source made the active and inactive calls. Rule as the data show it: active = GI50 up to about 1.1 µM and inactive = higher.
# Tests used:
# Assay in all cases: NCI tumour cell line growth inhibition, 48 h
# Malme-3M = system: Malme-3M
# NCI/ADR-RES = system: NCI/ADR-RES
# U-251 = system: U-251
# SN12C = system: SN12C
# SW-620 = system: SW-620
# UO-31 = system: UO-31
# Hs-578T = system: Hs-578T
# RPMI-8226 = system: RPMI-8226
# PC-3 = system: PC-3
# IGROV-1 = system: IGROV-1
# LOX IMVI = system: LOX IMVI
# UACC-62 = system: UACC-62
# SF-268 = system: SF-268
# 786-0 = system: 786-0
# A549 = system: A549
# HCC 2998 = system: HCC 2998
# MOLT-4 = system: MOLT-4
# HCT-15 = system: HCT-15
# NCI-H23 = system: NCI-H23
# SK-OV-3 = system: SK-OV-3
SMILES,GI50 (Malme-3M),GI50 (NCI/ADR-RES),GI50 (U-251),GI50 (SN12C),GI50 (SW-620),GI50 (UO-31),GI50 (Hs-578T),GI50 (RPMI-8226),GI50 (PC-3),GI50 (IGROV-1),GI50 (LOX IMVI),GI50 (UACC-62),GI50 (SF-268),GI50 (786-0),GI50 (A549),GI50 (HCC 2998),GI50 (MOLT-4),GI50 (HCT-15) [µM],GI50 (NCI-H23),GI50 (SK-OV-3)
CCOC(=O)c1c(N2CCCC2)ncn(C)c1=S,> 100 µM (inactive),> 100 µM (inactive),> 100 µM (inactive),> 100 µM (inactive),> 100 µM (inactive),41.6 µM (inactive),> 100 µM (inactive),> 100 µM (inactive),> 100 µM (inactive),> 100 µM (inactive),> 100 µM (inactive),> 100 µM (inactive),> 100 µM (inactive),> 100 µM (inactive),> 100 µM (inactive),> 100 µM (inactive),> 100 µM (inactive),> 100,> 100 µM (inactive),
Oc1[nH]c(Nc2ccc(Cl)cc2)nc2ncnc1-2,> 100 µM (inactive),> 100 µM (inactive),> 100 µM (inactive),> 100 µM (inactive),> 100 µM (inactive),,23.3 µM (inactive),> 100 µM (inactive),> 100 µM (inactive),> 100 µM (inactive),> 100 µM (inactive),> 100 µM (inactive),55 µM (inactive),> 100 µM (inactive),> 100 µM (inactive),98.6 µM (inactive),,> 100,> 100 µM (inactive),> 100 µM (inactive)
O=C1CCc2cc([N+](=O)[O-])ccc2O1,> 100 µM (inactive),> 100 µM (inactive),> 100 µM (inactive),> 100 µM (inactive),> 100 µM (inactive),,> 100 µM (inactive),> 100 µM (inactive),> 100 µM (inactive),> 100 µM (inactive),> 100 µM (inactive),> 100 µM (inactive),> 100 µM (inactive),> 100 µM (inactive),> 100 µM (inactive),> 100 µM (inactive),> 100 µM (inactive),> 100,> 100 µM (inactive),
O=C(/C=C/c1ccc(-c2ccccc2)cc1)NCc1ccc(C(=O)NCc2ccccc2)cc1,> 100 µM (inactive),> 100 µM (inactive),> 100 µM (inactive),> 100 µM (inactive),> 100 µM (inactive),> 100 µM (inactive),> 100 µM (inactive),,> 100 µM (inactive),> 100 µM (inactive),> 100 µM (inactive),> 100 µM (inactive),> 100 µM (inactive),> 100 µM (inactive),> 100 µM (inactive),> 100 µM (inactive),,> 100,90.2 µM (inactive),> 100 µM (inactive)
O=C(O)c1nc2ccc(C(F)(F)F)cc2nc1Nc1ccc(F)cc1,15.4 µM (inactive),20.2 µM (inactive),7.38 µM (inactive),26.8 µM (inactive),23.6 µM (inactive),12 µM (inactive),36.4 µM (inactive),,15 µM (inactive),20.7 µM (inactive),18.5 µM (inactive),11.7 µM (inactive),15.5 µM (inactive),20 µM (inactive),,15.7 µM (inactive),9.57 µM (inactive),20.7,15.2 µM (inactive),
COC(=O)[C@]1(CCC(C)=O)C(=O)C=CN([C@H](C)c2ccccc2)[C@@H]1Cc1ccc(OC)c(OCc2ccccc2)c1I,,29.2 µM (inactive),17.3 µM (inactive),18 µM (inactive),32.9 µM (inactive),15.2 µM (inactive),24 µM (inactive),14.7 µM (inactive),16.6 µM (inactive),12.6 µM (inactive),17.2 µM (inactive),14.8 µM (inactive),15.4 µM (inactive),17.8 µM (inactive),20.4 µM (inactive),14.2 µM (inactive),12.4 µM (inactive),18.9,23.7 µM (inactive),35.4 µM (inactive)
